# Test results as given in patent US20250144107A1, “USE OF A PIKFYVE INHIBITOR IN COMBINATION WITH IMMUNOTHERAPY” (The Regents of the University of Michigan, priority 2023, published 2025).
# What was measured:
# KPC1361 cells = assay: MHC-I surface expression in Pikfyve-wildtype, Pikfyve-null, Atg5-null or Atg7-null cells; type: cell-based, mouse; details: Pikfyve-wildtype cells, autophagy inhibition
# Text: FIG. 1F (Left) is line graphs of flow cytometry measuring MHC-I surface expression in KPC1361 cells with or without Pikfyve KO, treated with DMSO, Bafilomycin, chloroquine, Apilimod, or ESK981; (Right) is bar graphs of quantification of flow cytometry measuring MHC-I surface expression in KPC1361 cells with or without Pikfyve KO, treated with DMSO, Bafilomycin, chloroquine, Apilimod, or ESK981.
# FIG. 1G (Left) is a line graph of flow cytometry measuring MHC-I surface expression in KPC1361 cells with non-targeting single-guide RNA (control), or single-guide RNAs depleting Atg5 or Atg7, treated with DMSO or Apilimod; (Right) is a bar graph of quantification of flow cytometry measuring MHC-I surface expression in KPC1361 cells with non-targeting single-guide RNA (control), or single-guide RNAs depleting Atg5 or Atg7, treated with DMSO or Apilimod.
# Cancer cells or the OVA-expressing cancer cells treated in vitro were harvested from dishes, resuspended in buffer MACS (PBS containing 2% FBS and 2 mM EDTA), and stained with Zombie NIR™ Fixable Viability kit (BioLegend: #423106) and fluorophore-conjugated antibody against MHC-I or PE-conjugated antibody against SIINFEKL bound H-2Kb (BioLegend; catalog #141604), respectively. The cells were next washed twice with 1 ml MACS and fixed with 2% paraformaldehyde in PBS for 15 minutes at room temperature. The cells were then subjected to the flow cytometer (SONY SH800S) for measuring surface expression of MHC-I or SIINFEKL bound H-2Kb, respectively. Antibodies used in this study include anti-H-2Kb (BD Biosciences; catalog #553570) and anti-H-2Db (28-14-8; Thermo Fisher Scientific; catalog #12-5999-82) for KPC1361 and B16-F10, anti-H-2Kd (BD Biosciences; catalog #562004) and anti-H-2Dd (BD Biosciences; catalog #553580) for 4T1, anti-H-2Kq (BD Biosciences; catalog #742296) and anti-H-2Dq/H-2Lq (BD Biosciences; catalog #744853) for MyC-CaP, and anti-HLA-A,B,C (clone w6/32; BioLegend; catalog #311406) for human cancer cells.
# cDCs = assay: Phenotype of cultured cDCs (flow cytometry, western blot); type: cell-based, mice; details: DCs in vitro, each agent
# Protocol: FIG. 13G (Left) is a line graph of the relative median fluorescent intensity of the surface MHC-I on DMSO or apilimod-treated cDCs treated for 20 hours after 6 days of culture. FIG. 13G (Right) is a box and whisker plot of the surface MHC-I on DMSO or apilimod-treated cDCs treated for 20 hours after 6 days of culture
# FIG. 13H a western blot showing the total vinculin, loading control, and total MHC-I in DMSO or apilimod-treated, 20 hours, cDC lysates after 6 days of culture.
# FIG. 13K (Left) is a line graph of the relative median fluorescent intensity of the surface MHC-II on DMSO or apilimod-treated, 20 hours, cDCs treated after 6 days of culture. FIG. 13K (Right) is a box and whisker plot of the surface MHC-II on DMSO or apilimod-treated, 20 hours, cDCs treated after 6 days of culture.
# FIG. 13L a western blot showing the total vinculin, loading control, and total MHC-II in DMSO or apilimod-treated, 20 hours, cDC lysates after 6 days of culture.
# FIG. 13N a western blot showing the total histone H3, loading control, and total CD80 and CD86 in apilimod-treated, 20 hours, PIKfyve WT vs. KO cDC lysates after 6 days of culture.
# FIG. 13P is a series of six scatter plots of surface CD80 and CD86 on DMSO or apilimod-treated cDCs, with or without 20 hours of PolyI:C, 50 μg/ml, or lipopolysaccharide (LPS), 50 ng/ml, treatment after 6 days of culture.
# FIG. 13R a western blot showing the total vinculin, loading control, and total CD40 in DMSO or apilimod-treated, 20 hours, cDC lysates treated with or without additional LPS, 50 ng/ml, after 6 days of culture day 6.
# FIG. 19B is a line graph of representative density plot of median fluorescent intensity of surface XCR1 in DMSO or apilimod-treated, 20 hours, cDCs after 6 days of culture.
# FIG. 26G is a line graph of the relative median fluorescent intensity of the surface MHC-I, H2-kb, H2-kd, on DMSO or apilimod-treated cDCs with or without PolyI:C, 50 μg/ml or LPS, 50 ng/ml, treatment, 20 hours, after 6 days of culture.
# FIG. 26H is a line graph of the relative median fluorescent intensity of the surface MHC-II, MHC-IA-IE, on DMSO or apilimod-treated cDCs with or without PolyI:C, 50 μg/ml or LPS, 50 ng/ml, treatment, 20 hours, after 6 days of culture.
# B16F10-OVA tumors = assay: B16F10-OVA tumor model with PolyI:C adjuvant; type: in vivo, mice; details: treatment after inoculation, each agent alone
# Protocol: FIG. 16F is a series of four line graphs of the Individual growth curves of subcutaneous B16F10-OVA tumor volume following 21 days of pre-treatment with vehicle versus apilimod, 30 mg/kg daily, with or without subcutaneous injection of water versus PolyI:C, 100 μg on Day 1 and Day 14.
# FIG. 16H is a series of four line graphs of the Individual growth curves of subcutaneous B16F10-OVA tumor volume in mice treated with vehicle or apilimod, 30 mg/kg daily, with or without a subcutaneous injection of water versus PolyI:C, 100 μg once weekly.
# FIG. 26I is a line graph of the subcutaneous tumor volume of B16F10-OVA tumors following 21 days of pre-treatment with vehicle versus apilimod, 30 mg/kg×5 days/week, with or without subcutaneous injection of water versus PolyI:C, 100 μg on Day 1 and Day 14.
# FIG. 26J is a line graph of the subcutaneous tumor volume of B16F10-OVA tumors in mice treated with vehicle or apilimod, 30 mg/kg×5 days/week, with or without subcutaneous injection of water versus PolyI:C, 100 μg once weekly.
Molecule,MHC-I surface expression (KPC1361 cells),MHC-I and MHC-II expression (cDCs),tumor growth (B16F10-OVA tumors)
CCN(CC)CCCC(C)Nc1ccnc2cc(Cl)ccc12 (centres unmarked) [chloroquine],induced,,
PolyI:C,,stimulated,modest tumor growth inhibition
bafilomycin,induced,,
lipopolysaccharide [LPS],,stimulated,
